Test results reported in US20060263802A1 (priority 2003, published 2006).

Assays:
Type in all cases: binding
[1] = tested on: human monoclonal antibody CR57
[2] = tested on: human monoclonal antibody CRJB
[3] = tested on: human monoclonal antibody CRJB; remark: listed apart in the source
[4] = tested on: human monoclonal antibody CR57; remark: listed apart in the source
[5] = tested on: human monoclonal antibody CRJA
[6] = tested on: human monoclonal antibody CRJA; remark: listed apart in the source

LGPDGNVLIPEMQSS
Binding of CR57 (10 μg/ml) to looped/cyclic peptide (PEPSCAN-ELISA) [1]: 150 | Binding of CRJB (10 μg/ml) to looped/cyclic peptide (PEPSCAN-ELISA) [2]: 94 | Binding of CRJB to linear peptide (PEPSCAN-ELISA signal) [3]: 134 | Binding of CR57 to linear peptide (PEPSCAN-ELISA signal) [4]: 100 | Binding of CRJA to linear peptide (PEPSCAN-ELISA signal) [5]: 99 | Binding of CRJA (10 μg/ml) to looped/cyclic peptide (PEPSCAN-ELISA) [6]: 104

DPYDRSLHSRVFPSG
Binding of CR57 (10 μg/ml) to looped/cyclic peptide (PEPSCAN-ELISA signal) [1]: 106 | Binding of CRJB (10 μg/ml) to looped/cyclic peptide (PEPSCAN-ELISA signal) [2]: 71 | Binding of CRJB to linear peptide (PEPSCAN-ELISA signal) [3]: 120 | Binding of CR57 to linear peptide (PEPSCAN-ELISA signal) [4]: 90 | Binding of CRJA to linear peptide (PEPSCAN-ELISA signal) [5]: 92 | Binding of CRJA (10 μg/ml) to looped/cyclic peptide (PEPSCAN-ELISA signal) [6]: 186 | binding of antibody CRJA to looped/cyclic peptide (PEPSCAN OD) [6]: clearly bound

SLHSRVFPSGKCSGV
Binding of CR57 (10 μg/ml) to looped/cyclic peptide (PEPSCAN-ELISA signal) [1]: 115 | Binding of CRJB (10 μg/ml) to looped/cyclic peptide (PEPSCAN-ELISA signal) [2]: 86 | Binding of CRJB to linear peptide (PEPSCAN-ELISA signal) [3]: 111 | Binding of CR57 to linear peptide (PEPSCAN-ELISA signal) [4]: 69 | Binding of CRJA to linear peptide (PEPSCAN-ELISA signal) [5]: 96 | Binding of CRJA (10 μg/ml) to looped/cyclic peptide (PEPSCAN-ELISA signal) [6]: 97

IFTNSRGKRASKGSE
Binding of CR57 (10 μg/ml) to looped/cyclic peptide (PEPSCAN-ELISA signal) [1]: 85 | Binding of CRJB (10 μg/ml) to looped/cyclic peptide (PEPSCAN-ELISA signal) [2]: 75 | Binding of CRJB to linear peptide (PEPSCAN-ELISA signal) [3]: 125 | Binding of CR57 to linear peptide (PEPSCAN-ELISA signal) [4]: 77 | Binding of CRJA to linear peptide (PEPSCAN-ELISA signal) [5]: 97 | Binding of CRJA (10 μg/ml) to looped/cyclic peptide (PEPSCAN-ELISA signal) [6]: 88

EVHLPDVHNQVSGVD
Binding of CR57 to looped/cyclic peptide (PEPSCAN-ELISA signal) [1]: 125 | Binding of CRJB to looped/cyclic peptide (PEPSCAN-ELISA signal) [2]: 107 | Binding of human monoclonal antibody CRJB to linear peptide (PEPSCAN-ELISA signal) [3]: 150 | Binding of human monoclonal antibody CR57 to linear peptide (PEPSCAN-ELISA signal) [4]: 91 | Binding of human monoclonal antibody CRJA to linear peptide (PEPSCAN-ELISA signal) [5]: 104 | Binding of CRJA to looped/cyclic peptide (PEPSCAN-ELISA signal) [6]: 103

SLVIISPSVADLDPY
Binding of CR57 (10 μg/ml) to looped/cyclic peptide (PEPSCAN-ELISA signal) [1]: 98 | Binding of CRJB (10 μg/ml) to looped/cyclic peptide (PEPSCAN-ELISA signal) [2]: 85 | Binding of CRJB to linear peptide (PEPSCAN-ELISA signal) [3]: 105 | Binding of CR57 to linear peptide (PEPSCAN-ELISA signal) [4]: 68 | Binding of CRJA to linear peptide (PEPSCAN-ELISA signal) [5]: 88 | Binding of CRJA (10 μg/ml) to looped/cyclic peptide (PEPSCAN-ELISA signal) [6]: 87

ELLESSVIPLVHPLA
Binding of CR57 (10 μg/ml) to looped/cyclic peptide (PEPSCAN-ELISA) [1]: 112 | Binding of CRJB (10 μg/ml) to looped/cyclic peptide (PEPSCAN-ELISA) [2]: 88 | Binding of CRJB to linear peptide (PEPSCAN-ELISA signal) [3]: 133 | Binding of CR57 to linear peptide (PEPSCAN-ELISA signal) [4]: 90 | Binding of CRJA to linear peptide (PEPSCAN-ELISA signal) [5]: 85 | Binding of CRJA (10 μg/ml) to looped/cyclic peptide (PEPSCAN-ELISA) [6]: 73

LVNLHDFRSDEIEHL
Binding of CR57 (10 μg/ml) to looped/cyclic peptide (PEPSCAN-ELISA) [1]: 1 | Binding of CRJB (10 μg/ml) to looped/cyclic peptide (PEPSCAN-ELISA) [2]: 23 | Binding of CRJB to linear peptide (PEPSCAN-ELISA signal) [3]: 104 | Binding of CR57 to linear peptide (PEPSCAN-ELISA signal) [4]: 47 | Binding of CRJA to linear peptide (PEPSCAN-ELISA signal) [5]: 106 | Binding of CRJA (10 μg/ml) to looped/cyclic peptide (PEPSCAN-ELISA) [6]: 93

HDYTIWMPENPRLGM
Binding of CR57 (10 μg/ml) to looped/cyclic peptide (PEPSCAN-ELISA signal) [1]: 88 | Binding of CRJB (10 μg/ml) to looped/cyclic peptide (PEPSCAN-ELISA signal) [2]: 96 | Binding of CRJB to linear peptide (PEPSCAN-ELISA signal) [3]: 125 | Binding of CR57 to linear peptide (PEPSCAN-ELISA signal) [4]: 82 | Binding of CRJA to linear peptide (PEPSCAN-ELISA signal) [5]: 110 | Binding of CRJA (10 μg/ml) to looped/cyclic peptide (PEPSCAN-ELISA signal) [6]: 97

YKSVRTWNEILPSKG
Binding of CR57 (10 μg/ml) to looped/cyclic peptide (PEPSCAN-ELISA) [1]: 117 | Binding of CRJB (10 μg/ml) to looped/cyclic peptide (PEPSCAN-ELISA) [2]: 94 | Binding of CRJB to linear peptide (PEPSCAN-ELISA signal) [3]: 137 | Binding of CR57 to linear peptide (PEPSCAN-ELISA signal) [4]: 66 | Binding of CRJA to linear peptide (PEPSCAN-ELISA signal) [5]: 113 | Binding of CRJA (10 μg/ml) to looped/cyclic peptide (PEPSCAN-ELISA) [6]: 132

VEELVRKREECLDAL
Binding of CR57 (10 μg/ml) to looped/cyclic peptide (PEPSCAN-ELISA) [1]: 55 | Binding of CRJB (10 μg/ml) to looped/cyclic peptide (PEPSCAN-ELISA) [2]: 27 | Binding of CRJB to linear peptide (PEPSCAN-ELISA signal) [3]: 111 | Binding of CR57 to linear peptide (PEPSCAN-ELISA signal) [4]: 58 | Binding of CRJA to linear peptide (PEPSCAN-ELISA signal) [5]: 84 | Binding of CRJA (10 μg/ml) to looped/cyclic peptide (PEPSCAN-ELISA) [6]: 69

SLLQQHMELLESSVI
Binding of CR57 (10 μg/ml) to looped/cyclic peptide (PEPSCAN-ELISA) [1]: 113 | Binding of CRJB (10 μg/ml) to looped/cyclic peptide (PEPSCAN-ELISA) [2]: 85 | Binding of CRJB to linear peptide (PEPSCAN-ELISA signal) [3]: 163 | Binding of CR57 to linear peptide (PEPSCAN-ELISA signal) [4]: 124 | Binding of CRJA to linear peptide (PEPSCAN-ELISA signal) [5]: 108 | Binding of CRJA (10 μg/ml) to looped/cyclic peptide (PEPSCAN-ELISA) [6]: 101
